The values that follow come from paper PMC6270001, “Synthesis and Antiviral Activity of N-Phenylbenzamide Derivatives, a Novel Class of Enterovirus 71 Inhibitors” (Molecules, 2013).

The test system of data set [1] is EV 71 strain BrCr (genotype A). The data set can be described thus: Anti EV 71 activity assay (CPE, Reed & Muench) in Vero cells, strain BrCr. The note with it: for IC50: EV 71 strain BrCr, Vero cells, 100 TCID50, CPE, average ± SD, n=3; for SI BrCr: selectivity index TC50/IC50, strain BrCr, "-" stands for no antiviral selectivity. Type of data set: cell-based, Enterovirus 71. As for the experimental part: (§1) The EV 71 was divided into three genotypes A, B and C based on nucleotide sequence comparisons, and genotypes B and C were subdivided into B1-B5 and C1-C5 [6, 10]. Genotype C is the most common genotype found in mainland China, especially the C4 subgenotype. Consequently, the intermediate compounds 1a, 1c and 1e, and the final products 2a–c, 3a–g, and 5a–f were evaluated for their anti-EV 71 activity in Vero cells against genotypes C4 (strains SZ-98 and JS-52-3), C2 (strain H) and A (strain BrCr). […] The IC50 values were calculated by the Reed and Muench method, and the cytotoxicity was monitored by the CPE method.
(§2) Vero cells were purchased from the American Type Culture Collection and cultured in Minimum Essential Medium (MEM) supplemented with 10% Fetal Bovine Serum (FBS) and antibiotics (100 U/mL penicillin G, 100 μg/mL streptomycin). Enterovirus 71 (EV 71) strain SZ-98 was kindly provided by Dr. Qi Jin, Institute of Pathogen Biology, Chinese Academy of Medical Science and Peking Union Medical School. Enterovirus 71 (EV 71) strain BrCr (VR-1775) was purchased from the American Type Culture Collection. Enterovirus 71 (EV 71) strain JS-52-3 was kindly provided by Dr. Xiang-zhong Ye, Beijing Wantai Biological Pharmacy Enterprise Co., Ltd. All Enterovirus 71 strains were propagated in Vero cells.
(§3) All compounds were dissolved in DMSO at 20 mg/mL as a stock solution and further diluted in culture medium prior to use. The initial concentration in all cytotoxicity assay was 200 µg/mL, and inhibition assay for anti-EV71 experiments was from maximum non-toxic concentration, and proceeded serially 3-fold dilution with culture medium. All cytotoxicity and activity assay for each compound was repeated for three times, and the data was indicated as average ± SD.
(§4) Confluent Vero cells grown in 96-well microplates were infected respectively with 100 median tissue culture infective dose (TCID50) EV 71. After 1 h adsorption at 37 °C, the monolayers were washed by PBS and incubated at 37 °C in the maintenance medium with or without different concentrations of test compounds.

The test system of data set [2] is Vero cells. Briefly: Cytotoxicity determination in Vero cells monitored by cytopathic effect (CPE). The data set is classed as cell-based. To be noted: 48 h, Reed & Muench, concentration that inhibits 50% cellular growth, average ± SD, n=3. As for the experimental part: Vero cells were purchased from the American Type Culture Collection and cultured in Minimum Essential Medium (MEM) supplemented with 10% Fetal Bovine Serum (FBS) and antibiotics (100 U/mL penicillin G, 100 μg/mL streptomycin). Enterovirus 71 (EV 71) strain SZ-98 was kindly provided by Dr. Qi Jin, Institute of Pathogen Biology, Chinese Academy of Medical Science and Peking Union Medical School. […] Enterovirus 71 (EV 71) strain JS-52-3 was kindly provided by Dr. Xiang-zhong Ye, Beijing Wantai Biological Pharmacy Enterprise Co., Ltd. All Enterovirus 71 strains were propagated in Vero cells.
as §3
The cytotoxicity of compounds in the presence of Vero cells was monitored by cytopathic effect (CPE). Vero cells (2.5 × 10^4/well) were plated into a 96-well plate. A total of 24 h later, the monolayer cells were incubated in the presence of various concentrations of test compounds. […] The median toxic concentration (TC50) was calculated by Reed & Muench analyses.
Background: Protection from cytopathic effect is a common read-out in antiviral testing.

Data set [3] deals with EV 71 strain SZ-98 (genotype C4). The data set can be described thus: Anti EV 71 activity assay (CPE, Reed & Muench) in Vero cells, strain SZ-98. The data set is classed as cell-based, Enterovirus 71. The note with it: for IC50: EV 71 strain SZ-98, Vero cells, 100 TCID50, CPE, average ± SD, n=3; for SI SZ-98: selectivity index TC50/IC50, strain SZ-98, "-" stands for no antiviral selectivity. The protocol:
as §1, §2, §3, §4

Data set [4] has as its system EV 71 strain H (genotype C2). Briefly: Anti EV 71 activity assay (CPE, Reed & Muench) in Vero cells, strain H. The data set is classed as cell-based, Enterovirus 71. To be noted: for IC50: EV 71 strain H (C2 genotype), Vero cells, 100 TCID50, CPE, average ± SD, n=3; for SI H: selectivity index TC50/IC50, strain H, "-" stands for no antiviral selectivity. The protocol: as §1, §2, §3, §4

The subject of data set [5] is EV 71 strains SZ-98, JS-52-3, H, BrCr. Briefly: Anti EV 71 activity assay in Vero cells, summary over the four strains tested. The data set is classed as cell-based, Enterovirus 71. To be noted: for selectivity index (SI) values (range over strains): TC50/IC50, range over the EV 71 strains tested. The protocol:
as §1, §2, §3, §4

Data set [6] relates to EV 71 strain JS-52-3 (genotype C4). The data set can be described thus: Anti EV 71 activity assay (CPE, Reed & Muench) in Vero cells, strain JS-52-3. The note with it: for IC50: EV 71 strain JS-52-3, Vero cells, 100 TCID50, CPE, average ± SD, n=3; for SI JS-52-3: selectivity index TC50/IC50, strain JS-52-3, "-" stands for no antiviral selectivity. Type of data set: cell-based, Enterovirus 71. As for the experimental part:
as §1, §2, §3, §4

Data set [7] relates to 16 enteroviruses. The note with it: cited from earlier work.

The molecule `COc1ccc(C(=O)Nc2ccc(Cl)cc2)cc1N` [Compound 1c, 3-Amino-N-(4-chlorophenyl)-4-methoxybenzamide] came in with a melting point of 152 to 154 °C. In addition, the IC50 in data set [1] (Enterovirus A, Vero) amounted to 56 ± 4.2 µM. The “SI BrCr” value in data set [1] was determined as 10. In addition, the TC50 in data set [2] came to 520 ± 29 µM. In data set [3] (Enterovirus A, Vero), the IC50 is about 15 µM. Besides, the “SI SZ-98” value in data set [3] was 36. Also, half-maximal inhibition in data set [4] (Enterovirus A, Vero) (IC50) was put at 34 ± 3.6 µM. The “SI H” value in data set [4] came to 16. Further, the “selectivity index (SI) values (range over strains)” value (shortened to “selectivity index (SI) values”) in data set [5] is listed as 10–36. Further, half-maximal inhibition in data set [6] (Enterovirus A, Vero) (IC50) was put at 46 ± 5.7 µM. Also, in data set [6], the “SI JS-52-3” value amounted to 12.
For `COc1ccc(C(=O)Nc2ccc(Br)cc2)cc1N` [Compound 1e, 3-Amino-N-(4-bromophenyl)-4-methoxybenzamide], the melting point lay in the range of 190 to 192 °C. This molecule also had an IC50 in data set [1] (Enterovirus A, Vero) of 9.1 ± 1.4 µM. Also, the “SI BrCr” value in data set [1] was 68. The same molecule returned a TC50 in data set [2] of 620 ± 0.0 µM. In data set [3] (Enterovirus A, Vero), this molecule came in with a half-maximal inhibitory concentration (IC50) of 12 ± 1.1 µM. In addition, the “SI SZ-98” value in data set [3] is 51. In data set [4] (Enterovirus A, Vero), this molecule yielded a half-maximal inhibitory concentration (IC50) of 5.7 ± 0.8 µM. For the same molecule, the “SI H” value in data set [4] came out at 110. Besides, the “selectivity index (SI) values” value in data set [5] was 51–110. In data set [6] (Enterovirus A, Vero), this molecule showed an IC50 of 9.8 ± 0.4 µM. For the same molecule, the “SI JS-52-3” value in data set [6] was found to be 64.
In turn, `COc1ccc(C(=O)NC2CCCCC2)cc1NC(=O)C(C)F` (centres unmarked) [Compound 2b, N-Cyclohexyl-3-(2-fluoropropanamido)-4-methoxybenzamide] registered a melting point of 192 to 194 °C. This molecule also came in with an IC50 in data set [1] (Enterovirus A, Vero) of 360 ± 26 µM. The “SI BrCr” value in data set [1] is over 1.7. The TC50 in data set [2] was over 620 µM. Moreover, the IC50 in data set [3] (Enterovirus A, Vero) was over 620 µM. For the same molecule, in data set [4] (Enterovirus A, Vero), half-maximal inhibition (IC50) was put at 430 ± 36 µM. In addition, in data set [4], the “SI H” value was over 1.4. The “anti-EV 71 activity (in words)” value in data set [5] (structure-activity discussion) was “no anti-EV 71 activity was observed”. Further, the IC50 in data set [6] (Enterovirus A, Vero) was 210 µM. Moreover, in data set [6], the “SI JS-52-3” value was over 3.0.
For the molecule `CCCNc1cc(C(=O)Nc2cc(OC)c(OC)c(OC)c2)ccc1OC` [Compound 3g, 4-Methoxy-3-(propylamino)-N-(3,4,5-trimethoxyphenyl)benzamide], the melting point fell in the range of 164 to 167 °C. Further, in data set [1], the IC50 is 20 ± 3.1 µM and the “SI BrCr” value is listed as 27. In data set [1] (Enterovirus A, Vero), this molecule had an IC50 of about 15 µM. Further, in data set [2], the TC50 worked out at 530 µM. Moreover, the IC50 in data set [3] (Enterovirus A, Vero) is over 59 µM. The molecule further returned an IC50 in data set [4] (Enterovirus A, Vero) of about 15 µM. Moreover, the “SI H” value in data set [4] is 35. The “selectivity index (SI) values” value in data set [5] is given as 16–35. In data set [6] (Enterovirus A, Vero), this molecule had an IC50 of 34 ± 2.5 µM. In data set [6], the “SI JS-52-3” value came to 16.
For the molecule `CCC(=O)Nc1cc(C(=O)Nc2ccc(Br)cc2)ccc1OC` [Compound 5c], the IC50 in data set [1] (Enterovirus A, Vero) was 34 µM; in data set [3] it was 11 ± 0.8 µM; in data set [3] (Enterovirus A, Vero) it was about 15 µM; in data set [4] it was 8.4 ± 1.2 µM; in data set [4] (Enterovirus A, Vero), about 15 µM; in data set [6], 20 ± 3.1 µM. In data set [6] (Enterovirus A, Vero), the IC50 is about 15 µM. Besides, the “SI BrCr” value in data set [1] was 16. Besides, the TC50 in data set [2] came to 530 ± 0.0 µM. Further, in data set [3], the “SI SZ-98” value was 47. The “SI H” value in data set [4] came to 63. Further, in data set [5], the “selectivity index (SI) values” value was 16–63. Besides, the “SI JS-52-3” value in data set [6] turned out to be 27.
Regarding `CCOC(=O)c1ccc(OCCC2CCN(c3ccc(C)nn3)CC2)cc1` [Pirodavir, pirodavir, reference compound], the IC50 came out at 1 ± 0.2 µM in data set [1] (Enterovirus A, Vero); 1.2 ± 0.2 µM in data set [3] (Enterovirus A, Vero); 0.6 ± 0.1 µM in data set [4] (Enterovirus A, Vero); 1 ± 0.2 µM in data set [6] (Enterovirus A, Vero). For the same molecule, the TC50 in data set [2] is 31 ± 2.2 µM. In addition, in data set [7], the “concentration effective against 80% of 16 enteroviruses tested” value is 1.3 µg/mL.

In general, IC50 refers to the concentration that inhibits the measured activity by half. The low end stands for inhibition by little substance, the high end for a need for much substance. One may read the melting point as the temperature, or range, at which the solid turns liquid.
